Data from ChEMBL document CHEMBL4373705, “Design and synthesis of sulfonamidophenylethylamides as novel cardiac myosin activator” (2019).

How the values were obtained:
Bos taurus = species on record: Bos taurus; assay: Activation of bovine cardiac actin thin filament complex-stimulated myosin S1 ATPase activity assessed as inorganic phosphate liberated at 10 uM incubated for 10 mins in presence of ATP by spectrophotometry relative to control
Rattus norvegicus [1] = assay: Positive […] activity in Sprague-Dawley rat assessed as increase in ejection fraction at 16 ug/kg/min, iv for 3 mins by echocardiography relative to control; format: functional
Rattus norvegicus [2] = assay: Positive […] activity in Sprague-Dawley rat assessed as increase in fractional shortening at 16 ug/kg/min, iv for 3 mins by echocardiography relative to control; format: functional
Gallus gallus = species on record: Gallus gallus; assay: Activation of chicken gizzard muscle actin and tropomyosin-stimulated myosin S1 ATPase activity assessed as inorganic phosphate liberated at 100 uM incubated for 10 mins in presence of ATP by spectrophotometry relative to control
Oryctolagus cuniculus = species on record: Oryctolagus cuniculus; assay: Activation of rabbit skeletal muscle actin thin filament complex-stimulated myosin S1 ATPase activity assessed as inorganic phosphate liberated at 100 uM incubated for 10 mins in presence of ATP by spectrophotometry relative to control
Rattus norvegicus [3] = species on record: Rattus norvegicus; assay: Activation of myosin ATPase activity in Sprague-Dawley rat ventricular myocytes assessed as increase in ventricular cell shortening by measuring change in ventricular cell contractility at 5 uM by electrophysiology relative to control
Rattus norvegicus [4] = species on record: Rattus norvegicus; assay: Activation of myosin ATPase activity in Sprague-Dawley rat ventricular myocytes assessed as increase in ventricular cell shortening by measuring change in ventricular cell contractility at 1 uM by electrophysiology relative to control

| SMILES | Activity (Bos taurus) | Activity (Rattus norvegicus [1]) | Activity (Rattus norvegicus [2]) | further results |
| --- | --- | --- | --- | --- |
| COc1ccccc1CCNC(=O)CCCCc1ccccc1 | 57.4% | 9.18% | 13.06% | – |
| O=C(NCCCc1ccccc1)NCCc1ccccc1 | 51.1% | – | – | – |
| CN(C)S(=O)(=O)c1ccc(CCCC(=O)NCCCc2ccccc2)cc1 | 50.3% | 11.65% | 17.55% | Activity (Gallus gallus): 4.1%; Activity (Oryctolagus cuniculus): -1.9%; Activity (Rattus norvegicus [3]): 20.5% |
| CNS(=O)(=O)c1ccc(CCN(C)C(=O)CCCCc2ccccc2)cc1 | 46.5% | 9.22% | 13.51% | – |
| O=C(CCCc1ccccc1)NCCCc1ccccc1 | 62% | 9.08% | 13.85% | – |
| Cc1ccc(CCNC(=O)CCCCc2ccccc2)cc1 | 62.9% | – | – | – |
| O=C(CCCCc1ccccc1)NCc1ccccc1 | 33.1% | – | – | – |
| CN(C)S(=O)(=O)c1ccc(CCNC(=O)NCCCc2ccccc2)cc1 | 91.6% | – | – | Activity (Rattus norvegicus [3]): 47.9% |
| O=C(CCCCc1ccccc1)NCCc1ccccc1F | 43.3% | – | – | – |
| NS(=O)(=O)c1ccc(CNC(=O)CCCCc2ccccc2)cc1 | 44.4% | – | – | – |
| Cc1ccc2c(c1)C(=O)[C@]1(O)CCN(c3ccccc3)C1=N2 | – | – | – | Activity (Gallus gallus): -35.7%; Activity (Oryctolagus cuniculus): -50.7% |
| CCN(Cc1ccc(S(=O)(=O)N(C)C)cc1)C(=O)CCCCc1ccccc1 | 17.5% | – | – | – |
| CN(CCc1ccc(S(=O)(=O)N(C)C)cc1)C(=O)CCCCc1ccccc1 | 48.5% | 15.28% | 26.21% | Activity (Gallus gallus): 5.2%; Activity (Oryctolagus cuniculus): -4.8%; Activity (Rattus norvegicus [3]): 88.2% |
| CCN(CC)S(=O)(=O)c1ccc(CCN(C)C(=O)CCCCc2ccccc2)cc1 | 17.9% | – | – | – |
| CN(C)S(=O)(=O)c1ccc(CCCC(=O)N2CCN(c3ccccc3)CC2)cc1 | 14% | – | – | – |
| NS(=O)(=O)c1ccc(CCNC(=O)CCCCc2ccccc2)cc1 | 78.7% | 2.7% | 4.48% | – |

| SMILES | Activity (Bos taurus) | Activity (Rattus norvegicus [1]) | Activity (Rattus norvegicus [2]) | further results |
| --- | --- | --- | --- | --- |
| CN(C)S(=O)(=O)c1ccc(CNC(=O)CCCCc2ccccc2)cc1 | 20% | – | – | – |
| CN(C)S(=O)(=O)c1ccc(CCNC(=O)CCCCc2ccccc2)cc1 | 59% | 9.75% | 14.85% | Activity (Gallus gallus): 3%; Activity (Oryctolagus cuniculus): -2.8%; Activity (Rattus norvegicus [3]): 18.6% |
| CCN(CCc1ccc(S(=O)(=O)N(C)C)cc1)C(=O)CCCCc1ccccc1 | 13.9% | – | – | – |
| CN(Cc1ccc(S(=O)(=O)N(C)C)cc1)C(=O)CCCCc1ccccc1 | 24.1% | – | – | – |
| O=C(NCCCc1ccccc1)NCc1ccccc1 | 53.3% | – | – | – |
| CN(CCCc1ccccc1)C(=O)NCCc1ccc(S(=O)(=O)N(C)C)cc1 | 47.6% | – | – | Activity (Rattus norvegicus [3]): 63.5% |
| CN(CCc1ccc(S(=O)(=O)N2CCOCC2)cc1)C(=O)CCCCc1ccccc1 | 14.9% | – | – | – |
| COC(=O)N1CCN(Cc2cccc(NC(=O)Nc3ccc(C)nc3)c2F)CC1 | 58% | – | – | Activity (Gallus gallus): -5.5%; Activity (Rattus norvegicus [4]): 33.8%; Activity (Oryctolagus cuniculus): 2.8% |
| CN(CCCc1ccccc1)C(=O)CCCc1ccc(S(=O)(=O)N(C)C)cc1 | 55% | 14.08% | 24.69% | Activity (Gallus gallus): -3.4%; Activity (Oryctolagus cuniculus): 2.3%; Activity (Rattus norvegicus [3]): 46.5% |
| CN(CCc1ccc(S(=O)(=O)N(C)C)cc1)C(=O)NCCCc1ccccc1 | 52.3% | – | – | Activity (Rattus norvegicus [3]): 45.5% |
| COc1ccc(CCNC(=O)CCCCc2ccccc2)cc1OC | 71.6% | 8.19% | 11.83% | – |
| O=C(CCCCc1ccccc1)NC1Cc2ccccc2C1 | 31.1% | – | – | – |
| CNS(=O)(=O)c1ccc(CN(C)C(=O)CCCCc2ccccc2)cc1 | 55.9% | 9.95% | 15.75% | – |
| CN(C)S(=O)(=O)c1ccc(CCCC(=O)N2CCC(c3ccccc3)CC2)cc1 | 29.5% | – | – | – |
| O=C(CCCCc1ccccc1)NCCc1ccccc1 | 39.1% | 13.97% | 22.8% | Activity (Gallus gallus): -2.8%; Activity (Oryctolagus cuniculus): -2.9%; Activity (Rattus norvegicus [3]): 21.3% |
